Experimental findings from article PMC12281424, “A Rac-specific competitive inhibitor of guanine nucleotide binding reduces metastasis in triple-negative breast cancer” (Cell Reports Medicine, 2025) are described below.

Structures are written as SMILES.

For one experiment, the target named is CK2α1(h) (Homo sapiens, UniProt P68400). Description: Kinase Profiler. Type of experiment: biochemical.
The subject of another experiment is NIH/3T3 cell adhesion. Description: Cell adhesion assay (xCELLigence impedance). Type of experiment: cell-based. As to conditions: 10^-5 M. The procedure: NIH3T3cells (10000/well) were seeded in a 96 well plate microtiter xCELLigence assay plate (E-Plate) (ACEA Biosciences Inc.) and placed on the Real-time xCELLigence Cell Analyzer (Roche Applied Science) platform at 37°C to measure the “cell index” every 5 min for a period of 6 h. The cell index unit is defined as (Rn − Rb)/15. Rn is the cell electrode impedance of the well when it contains cells. Rb is the background impedance of the well with the media alone.
Supplementary Fig. 3: Example of one pharmacophore model used for virtual screening. (a) The pharmacophore model shown was created based on RAC1 (grey) and NSC23766 (orange) interaction. […] (b) Impact of different screening molecules (10^-5 M) on NIH/3T3 cell adhesion (xCELLingence Real-time cellanalysis, Agilent), migration (CYTOO Mobility plates) and proliferation (xCELLingence Real-time cell analysis, Agilent) .The level of RAC activation is determinedby the detection of RAC-GTP (pull-down assay) in NIH/3T3 cell treated with EGF (10 ng/mL) and the differentmolecules and normalize to the level of RAC activity measuredin the presenceof the reference RAC inhibitor EHT1864.
Supplementary Fig. 4: A41 inhibits RAC-dependent cell functions. (a) Representative records of single NIH/3T3 cell migration on micropatterned fibronectin lines (CYTOO Mobility plates) in the absence (Control)and presenceA41 at 10^-5 M (left panel) and corresponding quantification of migration speed (right panel) (scale bar: 20µm). […] (b) Typical curves showing the cell index representing the adhesion of NIH/3T3 fibroblast (xCELLingence Real-time cell analysis, Agilent) under control condition (Control) and pre-treated with 10 µM A41 or NSC23766 (left panel) and corresponding quantification of cell adhesion speed (right panel). […]

A further experiment concerns Nicotinic Acetylcholine. Description: Safety screen. Type of experiment: binding, human.
For experiment [1], the target named is Transporter, Norepinephrine (NET) (Homo sapiens, UniProt P23975). Description: Safety screen. Type of experiment: binding.
Procedure: (§1) Blood cell counts, kinase profiler, safety screen, bacterial cytotoxicity, Ames, micronucleus assays were performed by the company Eurofins (France).
Another experiment concerns the target SGK(h) (Homo sapiens, UniProt O00141). Put plainly: Kinase Profiler. Type of experiment: biochemical.
The target in a further experiment is CDK5/p25(h) (Homo sapiens, UniProt Q00535). Put plainly: Kinase Profiler. Type of experiment: biochemical.
A further experiment concerns the target MINK(h) (Homo sapiens, UniProt Q8N4C8). Put plainly: Kinase Profiler. Type of experiment: biochemical.
A further experiment has as its target DCAMKL1(h) (Homo sapiens, UniProt O15075). Put plainly: Kinase Profiler. Type of experiment: biochemical.
The subject of experiment [2] is RAC1-GTP levels in MDA-MB-468 Luc cells. Description: RAC-GTP immunofluorescence. Type of experiment: cell-based. The protocol:
Luciferase (Luc, green) was used to detect the cells. […] (C) Quantification of colony number of indicated cancer cell lines in the presence of A41 (10 μM) expressed as the percentage of control in the absence of A41. […] (D) Immunoblot analysis and corresponding quantification of AKT and P44/42 expression and phosphorylation (pAKT, p44/42) in MDA-MB-468 Luc cells in the absence (−) and presence of NSC23766 or A41 (1 h at 10^−5 M). […] (E) 3D invasion assay of MDA-MB-468 Luc and cancer-associated fibroblasts (CAFs) and corresponding quantification (scale bars: 200 μm).
After indicated treatments, cells were fixed with 4% paraformaldehyde and permeabilized in PBS 0.5% Triton X-100. To assess RAC1 activity, cells were then incubated with RAC-GTP antibody (26903, NewEast Biosciences, King of Prussia, Pa) (dilution 1/500) overnight at room temperature, followed by secondary Alexa 568-labeled anti-mouse antibody (dilution 1/1000). Cancer cells were detected with firefly luciferase antibody (ab21176, Abcam) (dilution 1/500) overnight at room temperature, followed by secondary Alexa 488-labeled anti-rabbit antibody (dilution 1/1000). To assess cytoskeleton organization, cells were incubated with Alexa Fluor 488 phalloidin (A12379, Invitrogen) to visualize F-actin. After staining, cells were mounted in Prolong gold antifade reagent with DAPI and images were captured by a fluorescence microscope.

For a further experiment, the target named is Chemokine CXCR2 (IL-8RB) (Homo sapiens, UniProt P25025). Put plainly: Safety screen. Type of experiment: binding.
In experiment [3] the target is ATPase, Na+/K+, Heart, Pig (Sus scrofa, UniProt P05024). Description: Safety screen. Type of experiment: biochemical.
Procedure: (§2) Blood cell counts, kinase profiler, safety screen, bacterial cytotoxicity, Ames, micronucleus assays were performed by the company Eurofins (France). The kinase profiler was performed by the company Eurofins (Discovery, Panlab and Cerep).
The target in a further experiment is ACK1(h) (Homo sapiens, UniProt Q07912). Description: Kinase Profiler. Type of experiment: biochemical.
The target in the next experiment is PKBγ(h) (Homo sapiens, UniProt Q9Y243). Description: Kinase Profiler. Type of experiment: biochemical.
Experiment [4] concerns the target PI3K (p110a(H1047R)/p85a)(h) (Homo sapiens, UniProt P42336, H1047R). Description: Kinase Profiler. Type of experiment: biochemical.
Procedure: (§3) The kinase profiler was performed by the company Eurofins (Discovery, Panlab and Cerep).
The next experiment deals with SAPK4(h) (Homo sapiens, UniProt O15264). Description: Kinase Profiler. Type of experiment: biochemical.
Chain of SAPK4(h) (O15264 whole entry): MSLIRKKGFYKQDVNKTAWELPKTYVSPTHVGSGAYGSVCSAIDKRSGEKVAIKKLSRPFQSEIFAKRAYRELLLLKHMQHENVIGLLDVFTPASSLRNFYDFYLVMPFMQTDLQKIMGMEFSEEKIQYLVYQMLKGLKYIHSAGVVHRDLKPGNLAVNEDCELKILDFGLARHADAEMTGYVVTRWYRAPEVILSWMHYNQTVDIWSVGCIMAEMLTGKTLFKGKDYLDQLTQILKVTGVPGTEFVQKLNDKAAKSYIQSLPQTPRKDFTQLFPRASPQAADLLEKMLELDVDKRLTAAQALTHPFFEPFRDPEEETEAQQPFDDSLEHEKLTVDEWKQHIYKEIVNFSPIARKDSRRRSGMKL

Chain of CK2α1(h) (P68400 whole entry): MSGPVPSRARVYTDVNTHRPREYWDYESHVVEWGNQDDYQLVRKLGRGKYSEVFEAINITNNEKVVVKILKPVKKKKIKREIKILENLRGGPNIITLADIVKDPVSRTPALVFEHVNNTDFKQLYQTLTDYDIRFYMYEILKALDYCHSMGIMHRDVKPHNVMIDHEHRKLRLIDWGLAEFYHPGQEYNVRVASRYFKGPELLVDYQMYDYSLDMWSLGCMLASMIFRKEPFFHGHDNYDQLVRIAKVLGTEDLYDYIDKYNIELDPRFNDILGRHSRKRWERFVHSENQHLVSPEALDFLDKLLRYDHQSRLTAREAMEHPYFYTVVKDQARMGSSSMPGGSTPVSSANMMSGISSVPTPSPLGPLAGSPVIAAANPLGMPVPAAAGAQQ
Chain of PI3K (p110a(H1047R)/p85a)(h) (P42336 whole entry H1047R): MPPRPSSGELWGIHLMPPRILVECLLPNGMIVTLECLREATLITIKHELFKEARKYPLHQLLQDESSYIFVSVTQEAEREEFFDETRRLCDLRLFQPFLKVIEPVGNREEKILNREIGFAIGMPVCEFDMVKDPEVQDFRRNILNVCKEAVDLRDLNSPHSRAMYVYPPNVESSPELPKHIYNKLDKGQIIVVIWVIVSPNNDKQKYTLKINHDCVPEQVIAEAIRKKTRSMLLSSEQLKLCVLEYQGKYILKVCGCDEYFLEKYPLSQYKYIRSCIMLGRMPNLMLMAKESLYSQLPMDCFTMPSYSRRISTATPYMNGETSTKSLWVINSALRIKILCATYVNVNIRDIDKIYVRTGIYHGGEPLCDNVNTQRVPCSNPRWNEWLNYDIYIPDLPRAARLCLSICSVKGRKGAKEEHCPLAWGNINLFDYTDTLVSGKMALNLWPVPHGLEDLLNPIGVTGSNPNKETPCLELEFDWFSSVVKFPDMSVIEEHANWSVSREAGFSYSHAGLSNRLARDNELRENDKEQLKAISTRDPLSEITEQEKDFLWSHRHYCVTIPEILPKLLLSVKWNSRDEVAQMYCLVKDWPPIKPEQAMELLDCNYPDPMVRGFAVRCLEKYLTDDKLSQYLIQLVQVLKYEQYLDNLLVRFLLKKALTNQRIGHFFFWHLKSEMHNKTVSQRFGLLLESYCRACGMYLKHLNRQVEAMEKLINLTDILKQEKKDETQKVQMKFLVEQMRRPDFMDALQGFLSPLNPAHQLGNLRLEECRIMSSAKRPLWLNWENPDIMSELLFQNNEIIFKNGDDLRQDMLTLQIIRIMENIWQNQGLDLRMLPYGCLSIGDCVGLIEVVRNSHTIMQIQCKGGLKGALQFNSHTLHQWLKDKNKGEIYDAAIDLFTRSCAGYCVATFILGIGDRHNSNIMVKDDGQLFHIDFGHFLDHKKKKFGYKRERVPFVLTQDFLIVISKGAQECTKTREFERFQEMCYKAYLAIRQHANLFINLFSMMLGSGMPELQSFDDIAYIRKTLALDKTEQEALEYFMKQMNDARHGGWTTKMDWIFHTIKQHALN
Chain of PI3K (p110a(H1047R)/p85a)(h) (P27986 whole entry partner): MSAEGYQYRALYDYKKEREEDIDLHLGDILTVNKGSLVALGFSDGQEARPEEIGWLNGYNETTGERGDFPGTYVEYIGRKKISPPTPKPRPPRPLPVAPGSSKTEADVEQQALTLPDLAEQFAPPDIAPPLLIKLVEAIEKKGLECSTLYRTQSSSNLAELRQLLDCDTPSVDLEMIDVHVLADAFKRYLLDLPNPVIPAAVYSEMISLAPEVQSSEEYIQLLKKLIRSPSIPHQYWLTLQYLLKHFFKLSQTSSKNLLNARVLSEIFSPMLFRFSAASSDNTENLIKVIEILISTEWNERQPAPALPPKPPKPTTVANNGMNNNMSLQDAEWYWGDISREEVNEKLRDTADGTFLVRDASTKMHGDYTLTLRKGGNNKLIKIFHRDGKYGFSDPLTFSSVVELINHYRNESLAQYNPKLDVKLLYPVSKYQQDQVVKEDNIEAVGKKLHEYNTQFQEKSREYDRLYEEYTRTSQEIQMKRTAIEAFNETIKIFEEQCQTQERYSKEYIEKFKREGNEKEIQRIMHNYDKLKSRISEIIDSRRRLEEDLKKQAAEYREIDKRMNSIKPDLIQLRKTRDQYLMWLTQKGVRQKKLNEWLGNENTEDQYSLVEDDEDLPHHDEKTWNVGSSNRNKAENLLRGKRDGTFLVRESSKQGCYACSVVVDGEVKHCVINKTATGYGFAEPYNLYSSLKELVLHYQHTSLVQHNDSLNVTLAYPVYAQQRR
Chain of ACK1(h) (Q07912 whole entry): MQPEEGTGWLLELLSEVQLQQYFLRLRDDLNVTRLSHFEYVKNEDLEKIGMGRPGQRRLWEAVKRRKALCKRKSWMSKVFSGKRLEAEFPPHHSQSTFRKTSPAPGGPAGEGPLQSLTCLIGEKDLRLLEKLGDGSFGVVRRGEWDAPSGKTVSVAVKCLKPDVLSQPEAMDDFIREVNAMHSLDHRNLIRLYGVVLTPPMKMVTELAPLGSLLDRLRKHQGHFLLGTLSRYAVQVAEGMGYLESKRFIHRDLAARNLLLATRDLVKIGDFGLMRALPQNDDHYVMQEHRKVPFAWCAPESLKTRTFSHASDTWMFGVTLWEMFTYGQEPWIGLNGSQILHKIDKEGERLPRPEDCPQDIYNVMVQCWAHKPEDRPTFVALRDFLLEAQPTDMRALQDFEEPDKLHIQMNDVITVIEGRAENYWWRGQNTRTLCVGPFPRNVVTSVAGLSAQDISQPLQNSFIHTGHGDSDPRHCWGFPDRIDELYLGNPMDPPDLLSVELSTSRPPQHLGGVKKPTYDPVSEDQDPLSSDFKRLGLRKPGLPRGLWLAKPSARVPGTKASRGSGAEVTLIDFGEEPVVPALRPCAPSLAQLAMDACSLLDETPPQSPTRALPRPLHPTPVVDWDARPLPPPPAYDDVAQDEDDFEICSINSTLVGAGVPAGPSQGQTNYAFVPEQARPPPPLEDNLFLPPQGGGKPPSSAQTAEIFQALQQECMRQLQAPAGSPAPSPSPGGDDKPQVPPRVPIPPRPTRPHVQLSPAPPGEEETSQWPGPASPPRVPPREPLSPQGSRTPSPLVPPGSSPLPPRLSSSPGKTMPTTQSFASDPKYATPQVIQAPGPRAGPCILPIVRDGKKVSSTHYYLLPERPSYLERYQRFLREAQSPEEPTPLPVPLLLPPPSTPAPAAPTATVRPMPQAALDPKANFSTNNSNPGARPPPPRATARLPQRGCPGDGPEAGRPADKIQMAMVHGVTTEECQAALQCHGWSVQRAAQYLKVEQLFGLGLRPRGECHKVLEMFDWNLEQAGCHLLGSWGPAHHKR
Chain of CDK5/p25(h) (Q00535 whole entry): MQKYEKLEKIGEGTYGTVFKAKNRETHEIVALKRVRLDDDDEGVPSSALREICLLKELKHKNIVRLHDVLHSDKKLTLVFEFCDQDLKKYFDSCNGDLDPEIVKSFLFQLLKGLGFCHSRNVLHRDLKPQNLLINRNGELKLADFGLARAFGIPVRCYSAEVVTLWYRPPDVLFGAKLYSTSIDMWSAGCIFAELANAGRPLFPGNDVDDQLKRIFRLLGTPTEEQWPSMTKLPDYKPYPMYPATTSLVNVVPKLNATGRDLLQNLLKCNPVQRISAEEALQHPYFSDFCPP
Chain of CDK5/p25(h) (Q15078 99-307 partner limits assumed): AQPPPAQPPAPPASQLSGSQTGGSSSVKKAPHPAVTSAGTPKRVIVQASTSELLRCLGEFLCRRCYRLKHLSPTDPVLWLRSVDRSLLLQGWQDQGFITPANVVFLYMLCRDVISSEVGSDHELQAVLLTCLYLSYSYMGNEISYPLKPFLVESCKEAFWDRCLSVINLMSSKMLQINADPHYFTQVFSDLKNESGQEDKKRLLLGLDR
Chain of Transporter, Norepinephrine (NET) (P23975 whole entry): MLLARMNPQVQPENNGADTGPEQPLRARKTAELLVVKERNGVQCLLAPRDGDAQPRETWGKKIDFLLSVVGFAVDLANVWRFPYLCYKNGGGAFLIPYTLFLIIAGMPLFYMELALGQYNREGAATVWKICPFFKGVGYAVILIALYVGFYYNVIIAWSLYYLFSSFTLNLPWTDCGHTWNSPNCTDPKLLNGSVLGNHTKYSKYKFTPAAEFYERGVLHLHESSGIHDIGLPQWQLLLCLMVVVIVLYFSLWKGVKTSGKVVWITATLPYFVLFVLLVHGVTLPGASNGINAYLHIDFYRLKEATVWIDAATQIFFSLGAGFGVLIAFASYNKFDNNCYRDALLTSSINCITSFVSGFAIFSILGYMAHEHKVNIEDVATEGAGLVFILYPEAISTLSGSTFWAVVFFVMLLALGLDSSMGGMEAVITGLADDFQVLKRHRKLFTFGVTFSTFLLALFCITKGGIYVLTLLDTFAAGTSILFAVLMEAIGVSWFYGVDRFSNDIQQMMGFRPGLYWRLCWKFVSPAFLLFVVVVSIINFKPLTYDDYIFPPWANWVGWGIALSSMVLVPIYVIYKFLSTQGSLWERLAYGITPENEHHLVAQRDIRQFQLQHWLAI
Procedure for ACK1(h): as §3
Procedure for CDK5/p25(h): as §2
Procedure for CK2α1(h): as §3
Procedure for Chemokine CXCR2 (IL-8RB): as §1
Procedure for DCAMKL1(h): as §2
Procedure for MINK(h): as §3
Procedure for Nicotinic Acetylcholine: as §1
Procedure for PKBγ(h): as §3
Procedure for SAPK4(h): as §3
Procedure for SGK(h): as §3

Regarding `COc1ccc(OC)c(NS(=O)(=O)c2ccc(NC(=O)CCSc3ccc(C)cc3)cc2)c1` [Compound A41], the “Activity(%)” value at CK2α1(h) is 80%; on SGK(h), 116%; on CDK5/p25(h), 110%; on MINK(h) it was 114%; on DCAMKL1(h) it was 99%; at ACK1(h), 103%. Also, the “Activity(%)” value at PKBγ(h) is reported as 98%; in experiment [4] it was 97%; at SAPK4(h), 104%. Moreover, the cell adhesion result in the experiment with NIH/3T3 cell adhesion is given as “efficiently inhibited both functions”. The “% inh.” value was -3% in the experiment with Nicotinic Acetylcholine, 36% in [1], 1% at Chemokine CXCR2 (IL-8RB) and -15% in [3]. Besides, the “decrease of active RAC1-GTP levels” value in experiment [2] (10^-5 M, 1 h) is recorded as “more than 50%”. Also, inhibition in experiment [2] (dose-response curve, Figure 5A) was half-maximal at 0.81 µM (IC50).

Usually IC50 stands for the concentration that inhibits the measured activity by half.
